# Results: patent publication US8895555B2, “Methods of treating intestinal diseases and inflammatory conditions related to HIV-AIDS” (Bach Pharma, Inc., priority 2009, dated 2014)
# Like-named read-outs stand apart in the source and are kept apart here.
# Columns and labels:
# [1] = test system: ts1 virus, a mutant of MoMuLV; details: mouse, in vivo
# Text: GVT® (sodium a-luminol) was provided by Bach-Pharma, Inc., North Andover, Mass. Goat anti-MoMuLV gp70 was from Microbiology Associates, Burlingame, Calif. (this antibody recognizes epitopes shared by the mature gp70 viral envelope protein and the precursor preprotein gPr80^env). Anti-mouse Ki67 was from Vector Laboratories, Burlingame, Calif. Polyclonal and monoclonal anti-mouse TSHI3 were from Cell Signaling (Boston, Mass.) and Dr. John R. Klein's laboratory, respectively. Mand rabbit anti-activated caspase-3 was from Cell Signaling. Mouse monoclonal anti Nrf2 was from R&D systems (Minneapolis, Minn.). FITC and Texas Red-conjugated anti-mouse, rat, rabbit and goat antibodies were from Jackson ImmunoResearch (West Grove, Pa.).
# FVB/N mice were obtained from Taconic Farms (Germantown, N.Y.). Breeding FVB/N pairs were housed in sterilized microisolator cages and supplied with autoclaved feed and water ad libitum. The microisolators were kept in an environmentally controlled isolation room. For ts1 infection, four-day-old mice were inoculated intraperitoneally with 0.1 ml of vehicle (mock infection) or with 0.1 ml of a ts1 suspension containing 2×107 infectious units/ml.
# For GVT treatment, animals from the control and ts1-infected groups are divided into two groups each […]. The infected mice are then divided again into two groups, one of whose individuals received 0.9% normal saline, intraperitoneally, five continuous days a week, followed by two resting days, until the end of the experiment. At the same time, mice from the other half of the infected animals received freshly prepared GVT, delivered intraperitoneally at 200 mg/kg body weight/day in 0.9% normal saline. The uninfected mice were also divided into two groups, one receiving saline alone, and the other receiving GVT as described above.
# At 30 dpi, mice from all groups were sacrificed, and their small intestines (2 cm from the jejunum) processed for Western blotting of the tissues or for frozen section immunohistochemistry. All mice were observed daily for clinical signs of disease, and individuals from all groups were sacrificed at 30 dpi. Intestinal tissues to be used for Western blotting are removed, snap-frozen in liquid nitrogen and stored at −80° C. until use. For immunohistochemistry, intestine segments were snap-frozen in liquid nitrogen in OCT embedding compound. These animal protocols were approved by The University of Texas M.D. Anderson Cancer Center Institutional Animal Care and Use Committee.
# Western blotting analysis was performed as described previously. Briefly, whole cell protein was extracted from whole intestines in radioimmunoprecipitation assay buffer (NP40, 0.5% sodium deoxycholate, 0.1% sodium dodecyl sulfate, 0.25 mM phenylmethylsulfonylfluoride, 1 mg/ml aprotinin, leupeptin, and pepstatin A, 1 mM sodium orthovanadate, and 1 mM sodium fluoride in phosphate-buffered saline, or PBS). Protein concentrations were measured using the Bio-Rad Dc protein assay reagent (Bio Rad Laboratories, Hercules, Calif.) as per the manufacturer's instructions. These lysates ([…] total protein per sample) were electrophoresed on 10% SDS-PAGE gels, and then transferred to polyvinylidene difluoride membranes (Millipore Corp, Bedford, Mass.). The membranes were blocked at room temperature for 1 hr in iris-buffered saline, or TBS, with 5% nonfat milk, and incubated with unconjugated primary antibody for 2 hrs, followed by 3 washes with TBS. The blots were then incubated with species-appropriate horseradish peroxidase-conjugated secondary antibody for an additional 1 hr. After three washes, immune complexes were detected by chemiluminescence (NEN Life Science Products, Boston, Mass.). A monoclonal anti-13-actin antibody (Sigma, St. Louis, Mo.) was used as a loading control. Values calculated as the ratio of their normalized values against this number.
# ts1 virus = details: for disease course: T cell loss, thymic atrophy, wasting, death: ts1-infected mice treated with GVT
# Text: GVT® (monosodium luminol) was provided by Bach-Pharma, Inc., North Andover, Mass. Goat anti-MoMuLV gp70 was from Microbiology Associates, Burlingame, Calif. This antibody recognizes epitopes shared by the mature gp70 viral envelope protein and the precursor preprotein gPr80^env Monoclonal rabbit anti-cleaved caspase-3 was from Cell Signaling (Boston, Mass.). Mouse monoclonal anti-Nrf2 was from R&D systems (Minneapolis, Minn.). Polyclonal anticytokeratin-5 (CK5) and monoclonal anti-cytokeratin-8 (CK8) antibodies were from Covance Research (Richmond, Calif.) and the National Institutes of Health Developmental Studies Hybridoma Bank (Iowa City, Iowa), respectively. F1TC and Texas Red conjugated anti-mouse, rat, rabbit and goat antibodies were from Jackson ImmunoResearch (West Grove, Pa.).
# 5 (and 6)-chloromethyl-2′,7′-dichlorodihydrofluorescein diacetate (CM-H2DCFDA; Molecular Probes, Eugene, Oreg.; hereafter called DCFDA), is a cell-permeant indicator for intracellular ROS, including hydrogen peroxide and superoxide. The dye itself is non-fluorescent, but when its acetate groups are removed by intracellular esterases, it is oxidized to form a highly fluorescent derivative, carboxydichlorofluorescein. Freshly isolated thymocytes were prepared from uninfected, GVT-only, ts1-only and ts1-GVT-treated mice, at 30 dpi. The thymocytes were incubated with […] of DCFDA, in culture medium (RPMI 1640) at 37° C. for 30 mm. After this loading period, the cells were washed twice with PBS, lysed, and the fluorescence of their contents measured using a Synergy HT multi-detection microplate reader (BioTek Instruments, Inc., Winoski, Vt.). The data are expressed as means±standard deviation (SD) of relative fluorescence units (against a standard curve) for DCFDA-loaded thymocyte lysates for three mice of each treatment group (See FIG. 16).
# FVB/N mice were obtained from Taconic Farms (Germantown, N.Y.). Breeding FVB/N pairs were housed in sterilized microisolator cages and supplied with autoclaved feed and water ad libitum. The microisolators were kept in an environmentally controlled isolation room. For ts1 infection, 4-day-old mice were inoculated intraperitoneally with 0.1 ml of vehicle (mock infection) or with 0.1 ml of a ts1 suspension containing 2×107 infectious units/ml. […] For GVT treatment, animals from the control and ts1 infected groups were divided into two groups each on the day of infection. Infected mice were then divided again into two groups, one of whose individuals received 0.9% normal saline, intraperitoneally, for five continuous days-a-week, followed by two resting days, until the end of the experiment, while the other half of the infected animals received freshly prepared GVT, delivered intraperitoneally at 200 mg/kg body weight/day in 0.9% normal saline. The uninfected mice were also divided into two groups, one receiving saline alone, and the other receiving GVT as described above. […] All mice were observed daily for clinical signs of disease, and the mice from all groups were sacrificed at 30 dpi.
# Whole thymi that were to be used for Western blotting were removed, snap frozen in liquid nitrogen and stored at −80° C. until use. For immunohistochemistry, thymi were snap-frozen in liquid nitrogen in Optimal Cutting Temperature (OCT) embedding compound (Sakura Finetek USA, Torrance, Calif.). These experimental protocols were approved by The University of Texas M.D. Anderson Cancer Center's Institutional Animal Care and Use Committee. […]
# [2] = test system: acute intestine infections of different nature
# Experimental: Clinical tests were performed on 56 patients suffering from acute intestine infections of different nature, accompanied by intoxication syndrome and diarrhea. All 56 patients had similar clinical manifestations, form and seriousness of the disease. The drug was prescribed to be used according to the following protocol: initial dose, 200 mg intramuscularly; then 3 hours later, a dose of 100 mg; and 3 hours later, a dose of 100 mg (400 mg per day).
# In anamnesis of all patients no data of non-endurance or allergic reactions to any remedies was stated. GVT was administered to 54 patients within first hours after admission, before the application of traditional treatment methods, i.e., water-crystalloid solutions, vitamins, spasmolytics, as by acute dysentery and salmonellosis—antibacterial therapy.
# [3] = test system: MT-4 cells (HIV-infected or uninfected)
# Experimental: HIV-1 infection of cultured T lymphoblastoid cells (MT4) causes a dramatic increase in intracellular ROS, and this is associated with cell death.
# GVT was added to the cell culture every day for all six days of culture. HIV causes apoptosis of MT-4 cells, measurable when the cells are harvested at 6 dpi.
# [4] = test system: H9 cells (HIV-infected or uninfected)
# [5] = GVT intramuscularly, 400 mg per day
compound,measurement,setting,value
"Nc1cccc2c(=O)[n-][nH]c(=O)c12.[Na+] [GVT, monosodium luminol]",CD4-positive cells in the LP of intestinal villi,[1],present in the LP of villi
same,Ki67 staining pattern (cell cycling) of intestinal epithelium,[1],limited to the crypts
same,Nrf2 in intestinal epithelial cells (immunostaining),[1],heavy loading with Nrf2
same,Nrf2 levels in intestinal tissues (Western blot),[1],significantly upregulated
same,TSH expression pattern along crypt-villus axis (immunostaining),[1],limited to the crypts
same,TSH level in intestinal lysates (Western blot),[1],what appear to be normal TSH levels
same,cleaved caspase-3 in intestines (Western blot),[1],absent
same,gPr80env accumulation in intestinal lysate (anti-gp70 Western blot),[1],only gp70 was present
same,crypt-villus organization of small intestine (H&E and gp70 staining),"[1]; ip, 200 mg/kg/day",apparently normal crypt-villus organization
same,Nrf2-positive cells in thymic sections (gp70/Nrf2 double staining),"ts1 virus; ts1-GVT mice, 30 dpi",large numbers of red cellular profiles (Nrf2-positive only)
same,thymic corticomedullary organization (H&E),"ts1 virus; ts1-GVT mice, 30 dpi",normal corticomedullary organization
same,thymus weight,"ts1 virus; ts1-GVT mice, 30 dpi",no thymic weight loss
same,"disease course: T cell loss, thymic atrophy, wasting, death",ts1 virus,delayed T cell loss and thymic atrophy for many weeks
same,"disease course: T cell loss, thymic atrophy, wasting, death",ts1 virus; listed as monosodium luminol,"significantly delays thymic atrophy, wasting, and death"
same,patients with body temperature normalized on the 1st or 2nd day of treatment,[2]; 53 patients of 56,94.6%
same,general weakness,[2]; [5],disappeared on the 3rd day
same,time to positive effect,[2]; [5],≤ 24 h
same,intoxication,"[2]; GVT intramuscularly, 400 mg per day, majority of patients",decrease in intoxication on the 1st and 2nd days
same,viability of uninfected MT-4 cells,[3]; GVT added every day for 6 days of culture,increases the viability of uninfected cells
same,apoptosis of HIV-infected MT-4 cells,"[3]; GVT added every day for 6 days, harvested at 6 dpi",significantly reduces apoptosis
same,survival of HIV-infected MT4 cells,"[3]; HIV-1 infected, GVT-treated",the infected cells survive
same,Nrf2 levels in MT-4 cells,"[3]; days 1-6 dpi, infected or not",an increase
same,viability of uninfected MT-4 cells,[3]; single dose on day 1,no effect on their viability
same,effect on uninfected MT-4 cells (proliferation),"[3]; uninfected, FIG. 9",mitogenic
same,ROS in uninfected H9 cells,[4],does not dramatically reduce ROS
